Consider 3 compounds from patent US20130059295A1 (priority 2011, published 2013).

≈ marks a conversion by molar mass, not a printed value.

The target in one data set is HucR. Particulars: read-out: Kd (apparent), one value printed for the listed ligands; cited from earlier work.
The target in a further data set is FadR (Escherichia coli, UniProt P0A8V6). Particulars: read-out: Kd of FadR binding to oleic acid; cited from earlier work.
Data set [1] has as its system fatty acid sensing strain (pBARk-RFP and pE8a-fadR in E. coli). In words: Fatty acid biosensor pBARk-RFP with pE8a-fadR, oleic acid added to growth media (Example 3). Type of data set: cell-based. Particulars: plasmid pBARk-RFP, over a broad range of oleic acid concentration, 12 hours.
The conditions of data set [2]: cited from earlier work.
Data set [3] deals with fatty acid biosensor plasmids in DH1 fadD knockout strain. It is filed as cell-based, E. coli. Particulars: up to the addition of 1 mM oleic acid.
The test system of data set [4] is fatty acid biosensor plasmids pLR-rfp and pAR-rfp in fadE knockout DH1 E. coli cells. Nature of the data set: microbe, parasite or virus in culture. Type of data set: cell-based.
For data set [5], the system named is E. coli fadBA promoter (PfadBA). Particulars: upon the addition of 5 mM oleic acid; cited from earlier work.

Sequence of FadR (P0A8V6 whole entry): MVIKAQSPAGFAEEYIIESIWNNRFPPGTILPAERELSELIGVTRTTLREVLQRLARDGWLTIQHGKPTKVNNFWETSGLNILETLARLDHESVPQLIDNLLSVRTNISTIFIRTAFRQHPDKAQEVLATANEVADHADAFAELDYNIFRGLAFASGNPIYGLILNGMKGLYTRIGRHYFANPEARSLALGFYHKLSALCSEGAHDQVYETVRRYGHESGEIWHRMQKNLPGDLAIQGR

Turning to `O=c1[nH]c(=O)c2[nH]c(=O)[nH]c2[nH]1` [uric acid], the Kd at HucR is 11.6 µM.
For the compound `CCCCCCCC/C=C\CCCCCCCC(=O)O` [oleic acid], on FadR, the Kd was 5 µM. Moreover, the “increase in fluorescence signal” value in data set [1] is on record as “more than 50 fold”. Besides, the “solubility limit in aqueous solution” value in data set [2] is listed as 5 mM (≈ 1410 µg/mL). Moreover, in data set [3], the “induction of RFP expression” value is reported as “no induction of RFP expression was detected”. The EC50 in data set [4] (Escherichia coli, 12 h, read-out: apparent half maximal effective concentration (EC50)) fell in the range of 35 to 60 µM. Besides, the “fluorescence change upon the addition of oleic acid” value in data set [4] (pAR-rfp, fadE knockout DH1 E. coli) is recorded as 60 fold. In data set [5], the “increased expression level of PfadBA” value was 5 fold.
For the compound `O=C(O)c1ccccc1O` [salicylate], the Kd at HucR was 11.6 µM.
